From article PMC6733874, “Zebrafish behavioural profiling identifies GABA and serotonin receptor ligands related to sedation and paradoxical excitation” (Nature Communications, 2019)
“Also recorded” adds a separate entry of the source.

Experiments:
[1] = tested on: zebrafish; type: in vivo; conditions: for rescue of behavioral phenotypes by pretreatment with the GABAAR antagonist PTX: violet light and eASR phenotypes, in words
[2] = tested on: human GABAARs (α1β2 and α1β2γ2); type: cell-based; conditions: for FLIPR Results / Ave Norm FLIPR Score: compound at 20 uM then 5 uM GABA; for FLIPR Results: Positive/Negative; for GABAAR PAM activity in FLIPR, in words: in the presence of GABA; for Ave Norm FLIPR Score: DMSO = 1
From the text: To determine if these compounds targeted human GABAARs, we tested them in a fluorescent imaging plate reader (FLIPR) assay on HEK293 cells transfected with α1β2 and α1β2γ2 human GABAAR subtypes. […]. […] While some of the compounds appeared to function in this assay as negative allosteric modulators (NAMs), reductions in fluorescence were likely due to toxicity-induced cell loss (Fig. 2f, Supplementary Table 5).
We used the FLIPR system (Molecular Devices) to quantify GABA-evoked activity of human GABAARs. We chose a membrane potential dye (Molecular Devices) to measure changes in membrane potentials and stably transfected HEK293 cells that expressed α1, β2 and γ2. Since we observed an increase in GABA-evoked responses when transfected with γ2 transiently, we describe the cells as having a low level of γ-subunit expression, indicating heterogeneity of GABAAR compositions in the cell (α1β2 or α1β2γ2). To assay for direct agonists, fluorescence was subtracted pre- and post compound addition. To assay for PAMs, cells were treated with compound at 20 uM and then with 5 uM GABA.

[3] = tested on: adult zebrafish; assay: Behavioral responses of adult zebrafish; conditions: in words
[4] = tested on: zebrafish; assay: Optovin-response suppression assay (pain-related); conditions: in words; relative to concentrations that caused eASRs
From the text: To determine if any of the hit compounds may be analgesic, we used optovin-induced motor activity as a potential analgesia-related assay.

[5] = target: TSPO (Rattus norvegicus, UniProt P16257); assay: In vitro receptor binding (NIMH PDSP)
Sequence of TSPO (P16257 whole entry): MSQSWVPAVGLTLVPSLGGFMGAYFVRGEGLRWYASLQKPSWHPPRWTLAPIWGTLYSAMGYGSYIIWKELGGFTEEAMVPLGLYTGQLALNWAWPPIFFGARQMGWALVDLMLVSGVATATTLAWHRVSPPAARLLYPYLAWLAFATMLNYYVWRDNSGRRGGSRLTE
From the text: (§1) A second approach to target identification was to test the binding affinity of hit compounds against a panel of 43 human and rodent neurotransmitter-related targets. […]. Several hit compounds bound to multiple targets, including compound 7145248, which bound to TSPO, the benzodiazepine receptor (BZP), dopamine transporter, and the alpha 2b receptor (Fig. 3d). The most common targets (binding > 5 compounds) included BZP, sigma 2, HTR2A/B/C, HTR6, and TSPO (Fig. 3c, d). TSPO, previously known as the peripheral benzodiazepine receptor (PBR) (because it was originally identified as a binding site for benzodiazepine anxiolytic drugs), is a mitochondrial protein that supplies cholesterol to steroid-producing enzymes in the brain[36]. TSPO ligands are thought to enhance GABAergic signaling by increasing neurosteroid production. However, some TSPO ligands, including benzodiazepines and zolpidem, also bind to GABAARs directly. […] Of the 14 compounds that bound to TSPO in vitro, 5 compounds potentiated GABAAR in FLIPR assays (Fig. 3c; 2f, green arrowheads).
(§2) In vitro binding assays and Ki data were generated by the National Institute of Mental Health’s Psychoactive Drug Screening Program (PDSP), contract no. HHSN-271-2008-00025-C (NIMH PDSP), for assay details: http://pdsp.med.unc.edu/PDSP%20Protocols%20II%202013-03-28.pdf. Normalized Ki (npKi) values were generated as follows: npKi = 4 + (−log10 (Ki))[64].

[6] = target: T1, alpha 2b receptor (Homo sapiens, UniProt P18089); assay: In vitro receptor binding (NIMH PDSP); conditions: in words; binding counted at Ki < 10 μM
T1 sequence (P18089 1-450): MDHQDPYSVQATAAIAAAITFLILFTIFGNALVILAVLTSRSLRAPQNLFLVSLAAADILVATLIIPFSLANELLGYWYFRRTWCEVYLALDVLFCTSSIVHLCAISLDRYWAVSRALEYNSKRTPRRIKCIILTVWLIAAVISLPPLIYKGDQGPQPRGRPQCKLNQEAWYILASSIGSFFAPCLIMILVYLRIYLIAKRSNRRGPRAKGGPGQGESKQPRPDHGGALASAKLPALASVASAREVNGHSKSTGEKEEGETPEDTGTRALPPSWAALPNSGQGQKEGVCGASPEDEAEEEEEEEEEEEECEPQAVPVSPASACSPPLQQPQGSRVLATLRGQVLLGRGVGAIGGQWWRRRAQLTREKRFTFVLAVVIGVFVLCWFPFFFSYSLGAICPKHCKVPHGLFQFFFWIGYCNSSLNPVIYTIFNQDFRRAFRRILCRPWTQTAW
From the text: as §1, §2

[7] = target: benzodiazepine receptor (BZP); assay: In vitro receptor binding (NIMH PDSP); conditions: in words; binding counted at Ki < 10 μM
From the text: as §1, §2

[8] = target: dopamine transporter (Homo sapiens, UniProt Q01959); assay: In vitro receptor binding (NIMH PDSP)
Sequence of dopamine transporter (Q01959 whole entry): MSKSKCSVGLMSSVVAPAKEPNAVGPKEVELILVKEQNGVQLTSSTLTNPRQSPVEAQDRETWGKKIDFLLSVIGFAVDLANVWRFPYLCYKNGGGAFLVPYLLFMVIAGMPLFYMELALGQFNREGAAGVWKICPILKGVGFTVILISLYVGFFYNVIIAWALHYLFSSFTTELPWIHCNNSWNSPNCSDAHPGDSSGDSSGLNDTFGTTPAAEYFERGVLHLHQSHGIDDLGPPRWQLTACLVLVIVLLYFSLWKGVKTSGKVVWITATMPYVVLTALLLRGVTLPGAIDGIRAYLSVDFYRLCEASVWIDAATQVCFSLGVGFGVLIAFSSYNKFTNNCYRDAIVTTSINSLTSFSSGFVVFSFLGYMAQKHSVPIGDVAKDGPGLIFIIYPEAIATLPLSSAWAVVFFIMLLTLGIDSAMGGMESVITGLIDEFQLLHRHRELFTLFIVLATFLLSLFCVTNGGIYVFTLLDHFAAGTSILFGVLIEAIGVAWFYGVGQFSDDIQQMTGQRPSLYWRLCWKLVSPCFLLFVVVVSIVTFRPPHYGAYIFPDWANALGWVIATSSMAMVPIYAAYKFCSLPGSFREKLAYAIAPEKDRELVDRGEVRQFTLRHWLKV
From the text: as §1, §2

[9] = tested on: zebrafish; assay: Viability of anesthetic treated animals; type: in vivo; conditions: zebrafish, in vivo
Experimental: (§3) Behavioral assays for pERK. Animals were treated with DMSO or drug for one hour then exposed to a low-volume acoustic stimulus every 10 seconds for 10 minutes. Optovin-treated animals were stimulated with violet light for one second every 10 seconds for 10 minutes. Videos were recorded to measure response to the stimulus and quantified by motion index (MI). Animals were immediately […]
High speed imaging. Digital video was recorded at 500-1000 frames per second using an Integrated Design Tools NX5-S1 digital camera. Assay duration was 500-1000 ms. Low amplitude tap stimuli was delivered as described above. Videos and still images were assembled using Fiji (imageJ) and […]
RNAscope. Zebrafish (6 dpf) were fixed using 10% normal buffered formaldehyde overnight at 4 °C, dehydrated in 100% methanol and stored at -20 °C until the assay was performed. Fluorescent in situ hybridization was performed using the RNAScope kit (Advanced Cell Diagnostics)4 with the following modifications: target retrieval was performed using 150 mM Tris pH 9.5 for 15 minutes at 70 °C, washes were performed using 0.2x SSCT (0.01% Tween-20, […], 0.3mM TriNa-citrate, pH7), samples were stored overnight after probe hybridization and 2x 5 minute washes in 5x SSC ([…], pH7) at room temperature before amplification and detection steps were performed the following day.
Viability. Animals were scored manually to determine viability after anesthetic treatments. 100 animals were scored per condition at 10 minutes, 1 hour and 5 hours post treatment. Strong heart rate was observed under a dissecting scope (Leica M-80) for our viability score. […]
rdkit function FingerprintMols package written for python. Tanimoto similarity function was used with a […]

[10] = tested on: zebrafish; assay: Cortisol detection assay; type: in vivo; conditions: 7-day old larvae treated 1 h; in words
Experimental: Cortisol levels were measured in zebrafish. Briefly, 15, 7-day old larvae were treated with the indicated compounds for 1 h. Larvae were anesthetized in ice-cold egg water and then snap-froze in an ethanol/dry ice bath. Larvae were then homogenized in 100 μL of water. Cortisol was extracted from the homogenate with 1 mL of ethyl acetate, the resulting supernatant was collected and the solvent allowed to evaporate. Cortisol was dissolved in 0.2% bovine serum albumin (A7030, Sigma) and frozen at −20 °C. For cortisol ELISA experiments, 96-well plates (VWR International) were treated with cortisol antibody (P01-92-94M-P, EastCoast Bio; […] in PBS) for 16 h at 4 °C, washed, and blocked with 0.1% BSA in PBS. Cortisol samples and cortisol-HRP (P91-92-91H, EastCoast Bio) were incubated at room temperature for 2 h and washed extensively with PBS containing 0.05% Tween-20 (Invitrogen). Detection of HRP was performed using tetramethylbenzidine (TMB: 22166-1, Biomol) and Tetrabutylammonium borohydride (TBABH: 230170-10 G, Sigma). Reaction was stopped using 1 M H2SO4. Absorbance was read at 450 nm in an ELISA plate reader (SpectraMax MS, Molecular Devices).

[11] = tested on: zebrafish; type: in vivo
Experimental: as §3, with “(MI).” for “(MI). Animals were immediately”

Structure (SMILES) | phenocopy ([1]; […], positive/negative) | rescue of behavioral phenotypes by pretreatment with the GABAAR antagonist PTX [1] | FLIPR Results [2] | GABAAR PAM activity in FLIPR, in words [2] | violet light response and acoustic startle in adult animals [3] | optovin response (optovin-induced motor activity) [4] | Ave Norm FLIPR Score [2] | binding [5] | binding [6] | binding [7] | binding [8] | eASRs at higher concentration ([1]; 50 µM compared to 6 µM) | Average phenoscore of etomidate-treated positive controls ([1]; etomidate 6.5 uM, versus DMSO 0.2) | percent animals responding (startle frequency) ([1]; etomidate 6.25 µΜ, dampened solenoid stimulus, 100 animals, controls 2%) [%] | toxicity at the concentrations that caused eASRs [9] | cortisol levels [10] | pERK labeling (neuronal activity) ([11]; in words) | pERK labeling in the caudal hindbrain at higher concentration ([11]; zebrafish, in vivo)
CCc1cc2c(=O)c(-c3ccccc3Cl)c(C)oc2cc1OC [compound 7013338] | positive | partially rescued | Positive | potentiated GABAARs significantly greater than positive controls; also recorded: significantly greater than the positive controls; also recorded: the most effective hit compound in the FLIPR assays; also recorded: activated human GABAARs more than any other hit compound | reducing the violet light response, while increasing acoustic startle | did not suppress the optovin response | – | – | – | – | – | – | – | – | – | – | – | –
O=C(NCc1cccc(Oc2ccccc2)c1)C(=O)c1c[nH]c2ccccc12 [compound 7145248] | – | – | – | – | – | – | -24.79 | bound | bound | bound | bound | – | – | – | – | – | – | –
CCOC(=O)c1cncn1[C@H](C)c1ccccc1 [etomidate] | – | rescued | Positive | increased fluorescence in the presence of GABA | reducing the violet light response, while increasing acoustic startle | suppressed the optovin response | 50.67 | – | – | – | – | suppressed eASRs | 0.71 | 85 | Neither etomidate or propofol was toxic | lowered cortisol levels | broadly reduced | decreased pERK labeling in the caudal hindbrain
